Data taken from patent publication US12043599B2, “Herbicidal compounds” (SYNGENTA PARTICIPATIONS AG, priority 2018, dated 2024).

Columns and labels:
Type in all cases: in vivo
Settings in all cases: 250 g/h, evaluated after 13 days
[1] = test system: Avena fatua (AVEFA); assay: Post-emergence herbicidal glasshouse test, percentage damage
Description: (§1) Seeds of a variety of test species are sown in standard soil in pots (Lolium perenne (LOLPE), Setaria faberi (SETFA), Alopecurus myosuroides (ALOMY), Echinochloa crus-galli (ECHCG), Avena fatua (AVEFA)). After cultivation for one day (pre-emergence) or after 8 days cultivation (post-emergence) under controlled conditions in a glasshouse (at 24/16° C., day/night; 14 hours light; 65% humidity), the plants are sprayed with an aqueous spray solution derived from the formulation of the technical active ingredient in acetone/water (50:50) solution containing 0.5% Tween 20 (polyoxyethelyene sorbitan monolaurate, CAS RN 9005-64-5). Compounds are applied at […]. The test plants are then grown in a glasshouse under controlled conditions in a glasshouse (at 24/16° C., day/night; 14 hours light; 65% humidity) and watered twice daily. After 13 days for pre and post-emergence, the test is evaluated for the percentage damage caused to the plant. The biological activities are shown in the following table on a five point scale (5=80-100%; 4=60-79%; 3=40-59%; 2=20-39%; 1=0-19%).

[2] = test system: Lolium perenne (LOLPE); assay: as above
Description: as §1

[3] = test system: Echinochloa crus-galli (ECHCG); assay: as above
Description: as §1

[4] = test system: Setaria faberi (SETFA); assay: as above
Description: as §1
Using procedures outlines above, wheat and barley crop plants and a weed species (SETFA) are treated post-emergence with compound A11 of the present invention or comparator compound C1 (Compound A-38 from WO2014/096289) at the application rates indicated. The compounds were also applied to wheat in conjunction with the safener compound cloquintocet-mexyl (CQC) at 50 g/ha.

[5] = test system: Setaria faberi (SETFA); assay: Pre-emergence herbicidal glasshouse test, percentage damage
Description: as §1

[6] = test system: Avena fatua (AVEFA); assay: as above
Description: as §1

[7] = test system: Lolium perenne (LOLPE); assay: as above
Description: as §1

[8] = test system: Echinochloa crus-galli (ECHCG); assay: as above
Description: as §1

[9] = test system: Alopecurus myosuroides (ALOMY); assay: as above
Description: as §1

SMILES	AVEFA POST percentage damage (five point scale) [1]	LOLPE POST percentage damage (five point scale) [2]	ECHCG POST percentage damage (five point scale) [3]	SETFA POST percentage damage (five point scale) [4]	SETFA PRE percentage damage (five point scale) [5]	AVEFA PRE percentage damage (five point scale) [6]	LOLPE PRE percentage damage (five point scale) [7]	ECHCG PRE percentage damage (five point scale) [8]	ALOMY PRE percentage damage (five point scale) [9]
CC#Cc1cc(C)c(C2=C(OC(=O)OC)CC3(CCN(C(=O)CC#N)CC3)CC2=O)c(C)c1 [Compound P43]	5 (5=80-100%)	5 (5=80-100%)	4 (4=60-79%)	5 (5=80-100%)	5 (5=80-100%)	5 (5=80-100%)	5 (5=80-100%)	5 (5=80-100%)	5 (5=80-100%)
CC#Cc1cc(C)c(C2=C(OC(C)=O)CC3(CCN(C(=O)CC#N)CC3)CC2=O)c(C)c1 [Compound P41]	5 (5=80-100%)	5 (5=80-100%)	5 (5=80-100%)	5 (5=80-100%)	5 (5=80-100%)	5 (5=80-100%)	5 (5=80-100%)	5 (5=80-100%)	5 (5=80-100%)
CC#Cc1cc(C)c(C2C(=O)CC3(CCN(C(=O)c4nc(OC)n(C)n4)CC3)CC2=O)c(C)c1 [Compound A105]	5 (5=80-100%)	5 (5=80-100%)	3 (3=40-59%)	5 (5=80-100%)	5 (5=80-100%)	5 (5=80-100%)	5 (5=80-100%)	5 (5=80-100%)	5 (5=80-100%)
CC#Cc1cc(C)c(C2=C(OC(=O)OC)CC3(CCN(C(=O)c4ccncn4)CC3)CC2=O)c(C)c1 [Compound P37]	5 (5=80-100%)	5 (5=80-100%)	5 (5=80-100%)	5 (5=80-100%)	5 (5=80-100%)	5 (5=80-100%)	5 (5=80-100%)	5 (5=80-100%)	5 (5=80-100%)
CC#Cc1cc(C)c(C2=C(OC(=O)OC)CC3(CCN(C(=O)c4cccnc4)CC3)CC2=O)c(C)c1 [Compound P35]	5 (5=80-100%)	5 (5=80-100%)	5 (5=80-100%)	5 (5=80-100%)	5 (5=80-100%)	5 (5=80-100%)	5 (5=80-100%)	5 (5=80-100%)	5 (5=80-100%)
CC#Cc1cc(C)c(C2=C(OC(=O)OC)CC3(CCN(C(=O)C4CCOCC4)CC3)CC2=O)c(C)c1 [Compound P40]	5 (5=80-100%)	5 (5=80-100%)	5 (5=80-100%)	5 (5=80-100%)	5 (5=80-100%)	5 (5=80-100%)	5 (5=80-100%)	5 (5=80-100%)	5 (5=80-100%)
CC#Cc1cc(C)c(C2=C(OC(=O)OC)CC3(CCN(C(=O)C4=NOC(C)(C)C4)CC3)CC2=O)c(C)c1 [Compound P39]	5 (5=80-100%)	5 (5=80-100%)	5 (5=80-100%)	5 (5=80-100%)	5 (5=80-100%)	5 (5=80-100%)	5 (5=80-100%)	5 (5=80-100%)	5 (5=80-100%)
CC#Cc1cc(C)c(C2=C(OC(=O)OC)CC3(CCN(C(=O)c4cnccn4)CC3)CC2=O)c(C)c1 [Compound P38]	5 (5=80-100%)	5 (5=80-100%)	5 (5=80-100%)	5 (5=80-100%)	5 (5=80-100%)	5 (5=80-100%)	5 (5=80-100%)	5 (5=80-100%)	5 (5=80-100%)
CC#Cc1cc(C)c(C2C(=O)CC3(CCN(C(=O)C4CCCO4)CC3)CC2=O)c(C)c1 (centres unmarked) [Compound A139]	5 (5=80-100%)	5 (5=80-100%)	5 (5=80-100%)	5 (5=80-100%)	5 (5=80-100%)	5 (5=80-100%)	5 (5=80-100%)	5 (5=80-100%)	–
CC#Cc1cc(C)c(C2C(=O)CC3(CCN(C(=O)c4ncccc4C#N)CC3)CC2=O)c(C)c1 [Compound A114]	5 (5=80-100%)	5 (5=80-100%)	5 (5=80-100%)	5 (5=80-100%)	5 (5=80-100%)	4 (4=60-79%)	5 (5=80-100%)	5 (5=80-100%)	–
CC#Cc1cc(C)c(C2=C(OC(=O)c3cccnc3)CC3(CCN(C(=O)c4cccnc4)CC3)CC2=O)c(C)c1 [Compound P36]	5 (5=80-100%)	5 (5=80-100%)	5 (5=80-100%)	5 (5=80-100%)	5 (5=80-100%)	4 (4=60-79%)	5 (5=80-100%)	5 (5=80-100%)	–
CC#Cc1cc(C)c(C2C(=O)CC3(CCN(C(=O)c4cnccc4C)CC3)CC2=O)c(C)c1 [Compound A115]	5 (5=80-100%)	5 (5=80-100%)	5 (5=80-100%)	5 (5=80-100%)	5 (5=80-100%)	3 (3=40-59%)	5 (5=80-100%)	5 (5=80-100%)	–
